Test results published in patent US10077436B2, “Beta-glucosidase enzymes for increased biomass saccharification” (Edeniq, Inc., priority 2013, dated 2018).

Columns and labels:
Type in all cases: biochemical
[1] = system: A-BG (Accellerase® BG from DuPont), commercial beta-glucosidase; assay: BG kinetics, cellobiose hydrolysis assay (HPLC) with glucose as competitive inhibitor, A-BG; details: cellobiose substrate, pH 4.8, 50° C.
From the text: (§1) The kinetic properties of beta glucosidase are important for cellulosic hydrolysis, since in commercial situations a wide range of substrate concentrations and different product inhibition conditions will be encountered. In this example, a Michaelis-Menten kinetics model was used to describe BG kinetics.
(§2) BG activity assay using cellobiose is the other standard assay to measure BG or cellobiase activity, which utilizes hydrolysis of cellobiose by cellobiase into two molecules of glucose, the last step of enzymatic hydrolysis of cellulose. One cellobiase unit (commonly termed as CBU) is defined as the amount of enzyme that converts […] of cellobiose or produces 2 μmol of glucose per min. Briefly, to determine BG activity, 25 μL of diluted enzyme in 50 mM citrate buffer (pH 4.8) equilibrated to 50° C. was mixed with 25 μL cellobiose (or cellobiose/glucose mixture for the kinetic study) to start the reaction. The mixture was incubated at 50° C. for 10 min, and the reaction was terminated by incubating the mixture at 99° C. for 5 min. Different methods are available to measure the glucose produced in the assays. For the kinetic study, HPLC was used.
To determine kinetic properties using cellobiose substrate, duplicate assays with cellobiose concentrations ranging from 0.47 to 15 mM and glucose concentrations of 0, 0.9, 4.5, 6.75, and 8.1 (for A-BG) or 9 (for all the other three BGs) g/L were performed. As for pNPG substrate, the range of cellobiose substrate concentration was chosen to show detectable activity at the lowest substrate concentration and saturation stage at high substrate concentration. […] Moreover, theoretically there are two ways to measure BG activity by HPLC when cellobiose is used as the substrate: tracking consumption of cellobiose or tracking production of glucose. […] In Table 3, A % is defined as follows and is an indicator of measurement sensitivity, since the difference of substrate or product concentrations before and after reaction was used to determine BG activity. Δ%=(start conc. of cellobiose−end conc. of cellobiose)/start conc. of cellobiose×100% (3) Δ%=(end conc. of glucose−start conc. of glucose)/start conc. of glucose×100% (4)
A similar simultaneous nonlinear regression method based on the competitive inhibition equation expressed in Equation (1) was used to determine kinetic parameters of BG towards cellobiose.
The specific activity used here was determined by the initial velocity approach that is required by implementing Michaelis-Menten model (Copeland, 2000). The specific activity was determined by measuring consumption of cellobiose in the first 10 min of reaction and was expressed as μmol min^−1 mg^−1, where mg^−1 means per mg of total protein. The relative activity was determined based on the maximum activity obtained in the absence of initial glucose inhibition.
(§3) The above experimental data were fit in the competitive inhibition model as expressed in Equation (1) by simultaneous nonlinear regression.

[2] = system: S-BG (Novozymes SP188 from Sigma), commercial beta-glucosidase; assay: BG kinetics, cellobiose hydrolysis assay (HPLC) with glucose as competitive inhibitor, S-BG; details: cellobiose substrate, pH 4.8, 50° C.
From the text: (§4) The kinetic properties of beta glucosidase are important for cellulosic hydrolysis, since in commercial situations a wide range of substrate concentrations and different product inhibition conditions will be encountered. In this example, a Michaelis-Menten kinetics model was used to describe BG kinetics. To determine these kinetic properties, BG activity assays using standard substrates pNPG and cellobiose were employed. yEdQ745-BG (wild type) and yEdQ885-BG (improved), were compared with two commercial BGs, A-BG (Accellerase®) BG from Dupont) and S-BG (Novozymes SP188 from Sigma).
as §2
To determine kinetic properties using cellobiose substrate, duplicate assays with cellobiose concentrations ranging from 0.47 to 15 mM and glucose concentrations of 0, 0.9, 4.5, 6.75, and 8.1 (for A-BG) or 9 (for all the other three BGs) g/L were performed. As for pNPG substrate, the range of cellobiose substrate concentration was chosen to show detectable activity at the lowest substrate concentration and saturation stage at high substrate concentration. However, in contrast to the pNPG substrate, when there was still some activity left at glucose concentration up to 36 g/L, most of the BG activity was lost at an inhibitor level of 9 g/L when cellobiose substrate was used. […] It should also be noted that colorimetric glucose assay cannot provide activity results for inhibitory glucose levels above 0.9 g/L after several trials. Therefore, HPLC measurements were used for kinetic studies using cellobiose substrate. It should be pointed out that the HPLC method may not be sensitive enough either to capture BG activity under more severe glucose inhibition conditions than 9 g/L of glucose. Moreover, theoretically there are two ways to measure BG activity by HPLC when cellobiose is used as the substrate: tracking consumption of cellobiose or tracking production of glucose. However, as shown by the example of one set of results from S-BG in Table 3, tracking glucose is problematic due to measurement sensitivity. In Table 3, A % is defined as follows and is an indicator of measurement sensitivity, since the difference of substrate or product concentrations before and after reaction was used to determine BG activity. Δ%=(start conc. of cellobiose−end conc. of cellobiose)/start conc. of cellobiose×100% (3) Δ%=(end conc. of glucose−start conc. of glucose)/start conc. of glucose×100% (4)
With increasing inhibitor (glucose) level, Δ% is decreasing. For the case of tracking glucose, Δ% was too small to be reliable when 4.5 g/L of glucose was added at the beginning. […] Thus, the approach of tracking cellobiose was chosen due to its higher detection sensitivity. In the substrate range used to determine kinetic parameters (0.47 to 30 mM for A-BG and 0.47 to 15 mM for the other three BGs), the detection sensitivity is reasonable.
A similar simultaneous nonlinear regression method based on the competitive inhibition equation expressed in Equation (1) was used to determine kinetic parameters of BG towards cellobiose. […]

[3] = system: A-BG (Accellerase® BG from DuPont), commercial beta-glucosidase; assay: BG kinetics, pNPG hydrolysis assay with glucose as competitive inhibitor, A-BG; details: pNPG substrate, pH 5.0, 50° C.
Description: as §1
(§5) One pNPG unit is defined as the amount of enzyme that produces 1 μmol of pNP per min. Briefly, to determine BG activity, 25 μL of diluted enzyme in 200 mM sodium acetate buffer (pH 5.0) was mixed with 25 μL of the same buffer and 25 μL of RO water (or glucose solution for the kinetic study) and the mixture was preincubated at 50° C. for 5 min. The reaction was initiated by adding 25 μL of 10 mM pNPG in 200 mM sodium acetate buffer (pH 5.0) and the mixture was incubated at 50° C. for 10 min. The reaction was then terminated by adding 100 μL of 0.25 M sodium carbonate, and the amount of pNP produced was determined by measuring absorbance at 405 nm using a predetermined calibration curve.
The range of substrate concentration was chosen to show detectable activity at the lowest concentration and saturation stage at high substrate concentration.
(§6) To determine the kinetic properties, a competitive inhibition mechanism was hypothesized as proposed in the literature (Chauve et al, 2010; Krogh et al, 2010). The Michaelis-Menten equation with the competitive inhibition term can be expressed in Equation (1), where [S] is the substrate concentration (mM), [I] is the inhibitor concentration (mM), V is the rate of product formation (mM/min), Vmax is the maximal rate of product formation (mM/min), Km is the Michaelis-Menten constant and Ki is the inhibition constant. The turnover number, Kcat, can be calculated by Equation (2), where [Et] is the total amount of enzyme.
(§7) Conventionally, linearization methods can be used to determine the kinetic parameters based on Equation (1). Three common linear plots used are Lineweaver-Burke, Eadie-Hofstee and Hanes plots (Rogers and Gibon, 2009). However, these linearized versions of the Michaelis-Menten equation often produce substantial errors in parameter estimation. […] All of the activity data at different substrate levels and different inhibitor levels were fit simultaneously according to the full nonlinear equation for competitive enzyme inhibition as expressed in Equation (1). Thus, Vmax, Km and Ki can be determined simultaneously from this fitting process, and Km/Ki can then be calculated. Kcat can be obtained by Equation (2) and Kcat/Km can be calculated accordingly.
as §3

[4] = system: S-BG (Novozymes SP188 from Sigma), commercial beta-glucosidase; assay: BG kinetics, pNPG hydrolysis assay with glucose as competitive inhibitor, S-BG; details: pNPG substrate, pH 5.0, 50° C.
From the text: as §4
as §5, with “BG activity assay using pNPG is one of the two commonly used standard assays to measure BG activity, which utilizes hydrolysis of p-nitrophenyl-β-D-glucopyranoside (pNPG) by BG into a yellow colored product, p-nitrophenol (pNP), that has a strong absorbance at 405 nm. One” for “One”
The range of substrate concentration was chosen to show detectable activity at the lowest concentration and saturation stage at high substrate concentration. The upper limit of inhibitor (glucose) level was chosen to get as close as possible to the real conditions during saccharification (˜4% w/v glucose) and have a detectable residual activity.
as §6, §7
The above experimental data were fit in the competitive inhibition model as expressed in Equation (1) by simultaneous nonlinear regression. The order of maximum velocity (Vmax) is A-BG>yEdQ885-BG>S-BG≈yEdQ745-BG. […] Nevertheless, the in-house BGs have much higher dissociation constant for inhibitor (Ki), indicating higher tolerance to product inhibition. Consistent with Vmax, the order of turnover number (Kcat) is A-BG>yEdQ885-BG>S-BG≈yEdQ745-BG. With much lower Km and much higher Kcat, A-BG has a considerably higher catalytic efficiency (Kcat/Km) than the other enzymes. The catalytic efficiency of S-BG and yEdQ885-BG is quite close, which is higher than that of yEdQ745-BG. […]

Structure (SMILES)	Kcat [1]	Kcat/Km [1]	Km [1]	Vmax [1]	Kcat [2]	Kcat/Km [2]	Km [2]	Vmax [2]	Kcat [3]	Kcat/Km [3]	Km [3]	Vmax [3]	Kcat [4]	Kcat/Km [4]	Km [4]	Vmax [4]
OC[C@H]1O[C@@H](O[C@H]2[C@H](O)[C@@H](O)C(O)O[C@@H]2CO)[C@H](O)[C@@H](O)[C@@H]1O (stereo partly shown) [cellobiose]	67.803 s⁻¹	10336 M⁻¹ s⁻¹	6560 ± 890 µM	51.89 ± 2.53 units/mg	15.54 s⁻¹	9773.7 M⁻¹ s⁻¹	1590 ± 410 µM	7.77 ± 0.56 units/mg								
O=[N+]([O-])c1ccc(O[C@@H]2O[C@H](CO)[C@@H](O)[C@H](O)[C@H]2O)cc1 [pNPG, p-nitrophenyl-β-D-glucopyranoside]									44.9232 s⁻¹	453769.7 M⁻¹ s⁻¹	99 ± 12 µM	34.38 ± 0.67 U/mg	8.4 s⁻¹	20000 M⁻¹ s⁻¹	420 ± 60 µM	4.20 ± 0.14 U/mg
